Reference: patent US7026469B2, “Compositions and methods of double-targeting virus infections and cancer cells” (Wake Forest University School of Medicine, priority 2000, dated 2006)
Like-named read-outs stand apart in the source and are kept apart here.

Columns and labels:
[1] = system: HIV-1; experiment: HIV-1 syncytial plaque assay in CEM-SS cells; type: cell-based
Experimental: (§1) The inhibitory effects of PC lipids, non-PC lipid-AZT conjugates, and double-targeting PC lipid-AZT conjugate compounds of the invention on replication of HIV-1 virus in cells was examined using the plaque assay procedure described in Kucera et al. (1990, AIDS Research and Human Retroviruses, 6:491). CEM-SS cells were seeded at 50,000 cells per milliliter in RPMI growth medium as a monolayer in 96-well dishes, inoculated with 50 to 100 plaque forming units of HIV-1 and overlaid with serial dilutions of either PC lipid, non-PC lipid-AZT conjugate, or PC-lipid-AZT conjugate in RPMI-1640 growth medium supplemented with 10% fetal bovine serum. The structures of the tested compounds are described in Table 1. AZT and PC lipids were used as positive controls. […] The cytotoxicity of PC lipids, non-PC lipid-AZT conjugates and double targeting PC lipid-AZT conjugates was assessed using the procedure described in Kucera et al. (1990, AIDS Res. And Human Retrovir., 6:496, and 1998, Antiviral Chemistry and Chemotherapy, 9:160). [drawing 16]
In the plaque assay, HIV-1 syncytial plaques are seen as large, multicellular foci (10 to 25 nuclei/syncytium) that appear either brown and granular or clear. Because the number of HIV-1 syncytial plaques was correlated with reverse transcriptase (RT) and p24 core antigen activity in the HIV-1 infected cell overlay fluids, the syncytial plaque assay could be used to quantify the amount of infectious virus. Reverse transcriptase activity was assayed according to the procedure described by Poeisz et al. (1980, Proc. Natl. Acad. Sci. U.S.A. 77:7415). The activity of p24 core antigen induced by HIV-1 infection of CEM-SS cells was measured spectrophotometrically using the commercial Coulter enzyme immunoassay (EIA).

[2] = Oral administration of phospholipid-AZT conjugate in rodents (distribution, half-life); design: species or system rodents (mice); conditions: mouse, in vivo
[3] = system: human lymphocytes; experiment: Metabolism of conjugate in human lymphocytes in tissue culture; type: in vitro ADME
Experimental: In another set of experiments the metabolism of the compound BM21-1290 using human lymphocytes in tissue culture was assessed. […] The predominant AZT species was AZT-MP with lesser amounts of AZT-DP, AZT-TP and AZT. […] AZT-MP can be activated to AZT-TP the inhibitor of HIV-1 induced reverse transcriptase.

[4] = system: CEM-SS cells; experiment: Cytotoxicity (TC50) of the compounds tested for anti-HIV-1 activity; type: cell-based, human
Experimental: as §1

[5] = system: Friend leukemia virus; conditions: cited from earlier work
[6] = system: monkey kidney cells (Vero); experiment: Cytotoxicity in Vero cell monolayers (cell morphology); type: cell-based; conditions: 48 hours at 37° C., lowest concentration changing morphology in at least 25% of the cells; for CC50: read-out: Cytotoxicity (TC50)
Experimental: To measure cytotoxicity of the compounds, the cell monolayers (described above) were treated with a serial concentration of test compound for 48 hours at 37° C. and visually examined after crystal violet staining by light microscopy for changes in cell morphology (cell rounding, shrinking, detachment) compared to an untreated control culture.

[7] = system: AZT-resistant clinical isolates of HIV-1; experiment: microbe, parasite or virus in culture; type: cell-based; conditions: for Fold-Increase (G-762 to G-691): post-AZT G-691 versus pre-AZT G-762; for Fold-Increase (H112-2 to G-910): post-AZT G-910 versus pre-AZT H112-2; for EC50: mean of 2 to 4 independent tests
Experimental: as §1
Evaluation of the clinical isolates to the compounds was performed using the plaque assay procedure described herein in Example 1. The matched pairs of clinical isolates were obtained through the AIDS Research and Reference Reagent Program, NIH, Bethesda, Md.

[8] = system: herpes simplex virus type 2; experiment: Herpes simplex virus type 2 plaque inhibition in Vero cells; type: cell-based
Experimental: Proof-of-concept of the antiviral activity of the double-targeting PC lipid-AZT conjugate compounds of the invention with respect to herpes simplex virus type 2 was evaluated and compared with that of PC lipid alone and with acyclovir (positive controls). Serial dilutions of PC lipid, PC lipid-AZT conjugate compound, or acyclovir were evaluated for inhibition of the formation of herpes simplex virus type 2 plaques in Vero cells and EC50 values were calculated from the results obtained. Briefly, the tests for anti-herpes simplex virus (HSV) activity and cytotoxicity of the compounds were performed by seeding 8×10^4 monkey kidney cells (Vero) per ml of D-MEM with 10% fetal bovine serum (FBS) in each well of a 12-well dish. The cultures were incubated at 37° C. to form a complete monolayer. To measure anti-HSV activity and effective concentration50 (EC50) each cell monolayer was infected with HSV diluted in PBS-A containing about 100 plaque forming units (PFU) per 0.1 ml. After virus attachment (1 hr., 37° C.) the infected monolayers were overlaid with E-MEM containing 2% FBS and 0.5% methyl cellulose with or without added serial concentrations of test compound. […] The EC50 values were calculated using a computer generated program.

[9] = system: HIV-1 persistently infected H9IIIB cells; experiment: Induction of defective HIV-1 in persistently infected H9IIIB cells (RT activity after infecting fresh CEM-SS cells); type: cell-based; conditions: for DPM-Bkg: RT activity in CEM-SS overlay medium after 7 or 9 days, H9IIIB cells treated with 1.0 μM compound for 14 or 11 days; for % Inhibition: inhibition of RT activity as measure of defective virus formation, 1.0 μM compound, 14 or 11 days
Experimental: HIV-1 persistently infected H9IIIB cells were washed twice to remove extracellular HIV-1, resuspended in fresh growth medium with or without 1.0 μM of compound for a total of 14 days. During the treatment period, the cells were subcultured 1:3 three times a week. In addition, on days 3, 7 and 11, the cells were pelleted to remove extracellular HIV-1 before subculture in fresh growth medium with or without the compound. After 14 or 11 days of treatment, the virus was pelleted (100,000×g, 1 hr, 4 C.) from the overlay medium to remove free compound, resuspended in fresh medium without compound and assayed for RT activity. The virus suspension was normalized to 500,000 RT DPM and used to infect fresh CEM-SS cells. The infected CEM-SS cells were incubated for a total of 7 or 9 days, and the overlay medium was harvested and assayed for induction of RT activity. The % inhibition of RT activity was used as a measure of defective virus formation during the treatment period.

[10] = plaques counted after five days at 37° C., CEM-SS cells, read-out: Anti-HIV-1 Activity (EC50)
[11] = post-AZT isolate, patient code G-691, read-out: EC50 Post-AZT G-691
[12] = post-AZT isolate, patient code G-910, read-out: EC50 Post-AZT G-910
[13] = pre-AZT isolate, patient code G-762, read-out: EC50 Pre-AZT G-762
[14] = pre-AZT isolate, patient code H112-2, read-out: EC50 Pre-AZT H112-2
[15] = Vero cells, 2 days at 37° C., replicate values in one cell, read-out: Anti-Herpes Simplex Activity (EC50)
[16] = acyclovir in replicate tests, read-out: EC50 against herpes simplex virus type 2

Row | SMILES | EC50 [1, 10] [nM] | CC50 ([4]; read-out: Cytotoxicity (TC50)) [nM] | Cytotoxicity (TC50) [6] | Fold-Increase (G-762 to G-691) [7] | Fold-Increase (H112-2 to G-910) [7] | EC50 [7, 11] [nM] | EC50 [7, 12] [nM] | EC50 [7, 13] [nM] | EC50 [7, 14] [nM] | EC50 [8, 15] [nM] | DPM-Bkg [9] [DPM] | % Inhibition [9] [%] | CC50 [6] [nM] | also measured
1 | CCCCCCCCCCCCSCC(COP(=O)(O)OCC1OC(n2cc(C)c(=O)[nH]c2=O)CC1N=[N+]=[N-])OCCCCCCCCCC (stereo not drawn) [BM21-1290] | 20 | 38500 | – | – | – | – | – | – | – | – | – | – | – | free AZT in the plasma [2]: little or no detectable free AZT in the plasma; half-life [2]: 48 h; tissue uptake [2]: preferentially taken up into lymphoid tissues (lymphoma, spleen and thymus); concentration in the brain versus plasma ([2]; po): equivalent to the concentration of BM21-1290 in the plasma; oral bioavailability ([2]; po): orally bioavailable; intracellular metabolism [3]: metabolized to form an alkyl-lipid plus a phosphorylated species of AZT
2 | CCCCCCCCCCOC(CNC(=O)CCCCCCCCC)COP(=O)([O-])OCC[N+](C)(C)C (stereo not drawn) [INK-11, 1-decanamido-2-decyloxypropyl-3-phosphocholine] | – | – | – | – | – | – | – | – | – | – | – | – | – | inhibition of FLV-induced pathogenesis (splenomegaly) ([5]; 50 milligrams per kilogram of body weight per day for 21 days, infected mice): 42%; suppression against RT activity ([5]; INK-11 compared with AZT alone): 42%
3 | CCCCCCCCCCCCSCC(COP(=O)([O-])OCC[N+](C)(C)C)OCCCCCCCCOCc1ccccc1 (stereo not drawn) [INK-17, 3-dodecylthio-2-(8′-benzyloxyoctyloxy)propyl phosphocholine] | 150 ± 130 | – | toxic @ 4 | 0 | 5.1 | 180 | 200 | 260 | 40 | > 4000 | 2847 | 58 | – | CC50 [4]: 49100 ± 13200 nM
4 | CCCCCCCCCCCCSCC(COP(=O)([O-])OCC[N+](C)(C)C)OCCCCCCCCO (stereo not drawn) [INK-18, 3-dodeceylthio-2-(8′-hydroxyoctyloxy)propyl phosphophocholine] | 1920 ± 1800 | 50000 ± 42000 | – | 0 | 1.8 | 600 | 1040 | > 1060 | 560 | – | 4195 | 38 | – | –
5 | CCCCCCCCCCCCSCC(COC(=O)CC(=O)OC[C@H]1O[C@@H](n2cc(C)c(=O)[nH]c2=O)C[C@@H]1N=[N+]=[N-])OC (stereo partly drawn) [INK-19] | 6 ± 1 | 6300 ± 1100 | – | 13.5 | >55.6 | 1620 | > 1700 | 120 | 30 | > 20000 | 2508 | 63 | > 20000 | –
6 | CCCCCCCCCCCCSCC(COP(=O)([O-])OCC[N+](C)(C)C)OCCCCCCCCC(=O)OCC(=O)OC[C@H]1O[C@@H](n2cc(C)c(=O)[nH]c2=O)C[C@@H]1N=[N+]=[N-] (stereo partly drawn) [INK-20] | – | 6900 ± 600 | toxic @ 20 | 18.6 | 22.0 | 740 | 440 | 40 | 20 | > 20000 | 2455 | 64 | – | anti-HIV-1 activity relative to AZT ([1]; compared with AZT): more than ten-fold higher than AZT; EC50 ([1]; read-out: anti-HIV-1 activity): 0.9 nM; fold increase in AZT-resistance among HIV-1 clinical isolates ([7]; text summary over both isolate pairs): about 20 fold; cytotoxicity [4]: 6.9 ± 0.6 µM
7 | CCCCCCCCCCCCSCC(COP(=O)([O-])OCC[N+](C)(C)C)OCCCCCCCCCCOCc1ccccc1 (stereo not drawn) [INK-21] | 1500 ± 230 | 57300 ± 10800 | toxic @ 20 | – | – | – | – | – | – | > 20000 | – | – | – | –
8 | CCCCCCCCCCCCSCC(COP(=O)([O-])OCC[N+](C)(C)C)OCCCCCCCCCCO (stereo not drawn) [INK-22] | 390 ± 310 | > 90500 | toxic @ 20 | – | – | – | – | – | – | > 20000 | – | – | – | –
9 | CCCCCCCCCCCCSCC(COP(=O)([O-])OCC[N+](C)(C)C)OCCCCCCCCCCCCOCc1ccccc1 (stereo not drawn) [INK-23] | > 1460 | > 100000 | – | – | – | – | – | – | – | > 20000 | – | – | > 20000 | –
10 | CCCCCCCCCCCCSCC(COP(=O)([O-])OCC[N+](C)(C)C)OCCCCCCCCCCCCO (stereo not drawn) [INK-24] | 390 ± 390 | 80600 ± 6200 | – | 0 | <1.0 | 80 | 250 | 190 | 370 | 13900 | 3087 | 33 | > 20000 | EC50 [8, 16]: 13800 nM
11 | CCCCCCCCCCCCSCC(COP(=O)([O-])OCC[N+](C)(C)C)OCCCCCCCCCCOC(=O)CC(=O)OC[C@H]1O[C@@H](n2cc(C)c(=O)[nH]c2=O)C[C@@H]1N=[N+]=[N-] (stereo partly drawn) [INK-25] | 20 ± 10 | 13600 | toxic @ 20 | 2 | 2.5 | 60 | 10 | 30 | 4 | > 20000 | 2140 | 54 | – | –
12 | CCCCCCCCCCCCSCC(COP(=O)([O-])OCC[N+](C)(C)C)OCCCCCCCCCCCCOC(=O)CC(=O)OC[C@H]1O[C@@H](n2cc(C)c(=O)[nH]c2=O)C[C@@H]1N=[N+]=[N-] (stereo partly drawn) [INK-26] | 20 ± 20 | 11600 | – | 20 | 1.5 | 60 | 30 | 3 | 20 | – | 1793 | 61 | > 20000 | EC50 [8, 16]: 12000 nM
